# How the values were obtained:
# barley = experiment: Test B preemergence/postemergence greenhouse plant response rating 0 to 10; assay type: in vivo, Hordeum vulgare; conditions: 0 to 10 scale
# Method in brief: (§1)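 Test chemicals, dissolved in a non-phytotoxic solvent, were applied to soil at planting and, at the same time, over foliage of seedlings at the one to four leaf stage.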
# bedstraw = experiment: as above; assay type: in vivo, Galium aparine; conditions: 0 to 10 scale
# Method in brief: as §1
# blackgrass = experiment: as above; assay type: in vivo, Alopecurus myosuroides; conditions: 0 to 10 scale
# Method in brief: as §1
# cocklebur = experiment: as above; assay type: in vivo, Xanthium pensylvanicum; conditions: 0 to 10 scale
# Method in brief: as §1
# crabgrass = experiment: as above; assay type: in vivo, Digitaria spp.; conditions: 0 to 10 scale
# Method in brief: as §1
# lambsquarters = experiment: as above; assay type: in vivo, Chenopodium album; conditions: 0 to 10 scale
# Method in brief: as §1
# rape = experiment: as above; assay type: in vivo, Brassica napus; conditions: 0 to 10 scale
# Method in brief: as §1
# rice [1] = experiment: as above; assay type: in vivo, Oryza sativa; conditions: 0 to 10 scale
# Method in brief: as §1
# soybean = experiment: as above; assay type: in vivo, Glycine max; conditions: 0 to 10 scale
# Method in brief: as §1
# sugar beet = experiment: as above; assay type: in vivo, Beta vulgaris; conditions: 0 to 10 scale
# Method in brief: as §1
# purple nutsedge = experiment: as above; assay type: in vivo, Cyperus rotundus; conditions: 0 to 10 scale
# Method in brief: as §1
# corn = experiment: Test C preemergence/postemergence greenhouse plant response rating 0 to 100; assay type: in vivo, Zea mays; conditions: POSTEMERGENCE; for Plant response rating, Corn: 0 to 100 scale
# Method in brief: (§2)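 Compounds in non-phytotoxic solvent went onto sandy loam before emergence (seeded one day earlier) or onto plants at the one-to-four leaf stage. Duck salad was treated via flood water (~2.5 cm, maintained) over silt loam.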
# morningglory = experiment: as above; assay type: in vivo, Ipomoea hederacea; conditions: POSTEMERGENCE; for Plant response rating, Morningglory: 0 to 100 scale
# Method in brief: as §2
# pigweed = experiment: as above; assay type: in vivo, Amaranthusretroflexus; conditions: POSTEMERGENCE; for Plant response rating Pigweed: 0 to 100 scale
# Method in brief: as §2
# sorghum = experiment: as above; assay type: in vivo, Sorghum bicolor; conditions: POSTEMERGENCE; for Plant response rating, Sorghum: 0 to 100 scale
# Method in brief: as §2
# rice [2] = experiment: Test C flood test plant response rating 0 to 100; assay type: in vivo, Oryza sativa; conditions: for Plant response rating Rice Japonica: flood test species listed under POSTEMERGENCE, 0 to 100 scale
# Method in brief: (§3)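 Compounds in non-phytotoxic solvent applied preemergence to sandy loam one day after planting, postemergence at the 1–4 leaf stage, or to ~2.5 cm floodwater over silt loam.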
# umbrella sedge = experiment: Test C flood test plant response rating 0 to 100; assay type: in vivo, Cyperus difformis; conditions: for Plant response rating Umbrella sedge: flood test species listed under POSTEMERGENCE, 0 to 100 scale
# Method in brief: as §3
# barnyardgrass = experiment: Test C flood test plant response rating 0 to 100; assay type: in vivo, Echinochloa crus-galli; conditions: for Plant response rating, Barnyardgrass: flood test species listed under POSTEMERGENCE, 0 to 100 scale
# Method in brief: as §3
# [3] = POSTEMERGENCE section, flood test, Rate 4 g/ha
# [4] = Rate 16 g/ha, under POSTEMERGENCE head (flood test species)
smiles,measurement,setting,value
C#CC(C)N1C(=O)COc2cc(F)c(-c3nn4c(c3Cl)CCCC4)cc21 (stereo not shown) [Compound 50],"Plant response rating, Barley","barley; POSTEMERGENCE, Rate 10 g/ha",3
same,"Plant response rating, Barley","barley; POSTEMERGENCE, Rate 50 g/ha",4
same,"Plant response rating, Barley","barley; PREEMERGENCE, Rate 10 g/ha",0
same,"Plant response rating, Barley","barley; PREEMERGENCE, Rate 50 g/ha",0
same,"Plant response rating, Bedstraw","bedstraw; POSTEMERGENCE, Rate 10 g/ha",10
same,"Plant response rating, Bedstraw","bedstraw; POSTEMERGENCE, Rate 50 g/ha",10
same,"Plant response rating, Bedstraw","bedstraw; PREEMERGENCE, Rate 10 g/ha",3
same,"Plant response rating, Bedstraw","bedstraw; PREEMERGENCE, Rate 50 g/ha",10
same,"Plant response rating, Blackgrass","blackgrass; POSTEMERGENCE, Rate 10 g/ha",6
same,"Plant response rating, Blackgrass","blackgrass; POSTEMERGENCE, Rate 50 g/ha",6
same,"Plant response rating, Blackgrass","blackgrass; PREEMERGENCE, Rate 10 g/ha",4
same,"Plant response rating, Blackgrass","blackgrass; PREEMERGENCE, Rate 50 g/ha",6
same,"Plant response rating, Cocklebur","cocklebur; POSTEMERGENCE, Rate 10 g/ha",9
same,"Plant response rating, Cocklebur","cocklebur; POSTEMERGENCE, Rate 50 g/ha",10
same,"Plant response rating, Cocklebur","cocklebur; PREEMERGENCE, Rate 10 g/ha",0
same,"Plant response rating, Cocklebur","cocklebur; PREEMERGENCE, Rate 50 g/ha",0
same,"Plant response rating, Crabgrass","crabgrass; POSTEMERGENCE, Rate 10 g/ha",3
same,"Plant response rating, Crabgrass","crabgrass; POSTEMERGENCE, Rate 50 g/ha",4
same,"Plant response rating, Crabgrass","crabgrass; PREEMERGENCE, Rate 10 g/ha",0
same,"Plant response rating, Crabgrass","crabgrass; PREEMERGENCE, Rate 50 g/ha",0
same,"Plant response rating, Lambsquarter","lambsquarters; POSTEMERGENCE, Rate 10 g/ha",9
same,"Plant response rating, Lambsquarter","lambsquarters; POSTEMERGENCE, Rate 50 g/ha",10
same,"Plant response rating, Lambsquarter","lambsquarters; PREEMERGENCE, Rate 50 g/ha",10
same,"Plant response rating, Rape","rape; POSTEMERGENCE, Rate 10 g/ha",9
same,"Plant response rating, Rape","rape; POSTEMERGENCE, Rate 50 g/ha",10
same,"Plant response rating, Rape","rape; PREEMERGENCE, Rate 50 g/ha",8
same,"Plant response rating, Rice","rice [1]; POSTEMERGENCE, Rate 10 g/ha",6
same,"Plant response rating, Rice","rice [1]; POSTEMERGENCE, Rate 50 g/ha",4
same,"Plant response rating, Rice","rice [1]; PREEMERGENCE, Rate 50 g/ha",2
same,"Plant response rating, Soybean","soybean; POSTEMERGENCE, Rate 10 g/ha",6
same,"Plant response rating, Soybean","soybean; POSTEMERGENCE, Rate 50 g/ha",9
same,"Plant response rating, Soybean","soybean; PREEMERGENCE, Rate 50 g/ha",3
same,"Plant response rating, Sugar beet","sugar beet; POSTEMERGENCE, Rate 10 g/ha",10
same,"Plant response rating, Sugar beet","sugar beet; POSTEMERGENCE, Rate 50 g/ha",10
same,"Plant response rating, Sugar beet","sugar beet; PREEMERGENCE, Rate 50 g/ha",10
same,"Plant response rating, Nutsedge","purple nutsedge; POSTEMERGENCE, Rate 10 g/ha",4
same,"Plant response rating, Nutsedge","purple nutsedge; POSTEMERGENCE, Rate 50 g/ha",5
same,"Plant response rating, Nutsedge","purple nutsedge; PREEMERGENCE, Rate 50 g/ha",0
same,"Plant response rating, Corn",corn; 62 g/ha,50
same,"Plant response rating, Corn",corn; 250 g/ha,60
same,"Plant response rating (0 to 100), Corn",corn; Rate 1 g/ha,20
same,"Plant response rating (0 to 100), Corn",corn; Rate 4 g/ha,30
same,"Plant response rating (0 to 100), Corn",corn; Rate 16 g/ha,40
same,"Plant response rating, Morningglory",morningglory; 62 g/ha,100
same,"Plant response rating, Morningglory",morningglory; 250 g/ha,100
same,"Plant response rating (0 to 100), Morningglory",morningglory; Rate 1 g/ha,50
same,"Plant response rating (0 to 100), Morningglory",morningglory; Rate 4 g/ha,70
same,"Plant response rating (0 to 100), Morningglory",morningglory; Rate 16 g/ha,100
same,Plant response rating Pigweed,pigweed; 62 g/ha,100
same,Plant response rating Pigweed,pigweed; 250 g/ha,100
same,"Plant response rating (0 to 100), Pigweed",pigweed; Rate 1 g/ha,85
same,"Plant response rating (0 to 100), Pigweed",pigweed; Rate 4 g/ha,100
same,"Plant response rating (0 to 100), Pigweed",pigweed; Rate 16 g/ha,100
same,"Plant response rating, Sorghum",sorghum; 62 g/ha,50
same,"Plant response rating, Sorghum",sorghum; 250 g/ha,50
same,"Plant response rating (0 to 100), Sorghum",sorghum; Rate 1 g/ha,30
same,"Plant response rating (0 to 100), Sorghum",sorghum; Rate 4 g/ha,50
same,"Plant response rating (0 to 100), Sorghum",sorghum; Rate 16 g/ha,50
same,"Plant response rating (0 to 100), Rice Japonica",rice [2]; [3],25
same,"Plant response rating (0 to 100), Rice Japonica",rice [2]; [4],60
same,Plant response rating Rice Japonica,rice [2]; 62 g/ha,65
same,Plant response rating Rice Japonica,rice [2]; 250 g/ha,90
same,"Plant response rating (0 to 100), Umbrella sedge",umbrella sedge; [3],0
same,"Plant response rating (0 to 100), Umbrella sedge",umbrella sedge; [4],0
same,Plant response rating Umbrella sedge,umbrella sedge; 62 g/ha,75
same,Plant response rating Umbrella sedge,umbrella sedge; 250 g/ha,95
same,"Plant response rating (0 to 100), Barnyardgrass",barnyardgrass; [3],60
same,"Plant response rating (0 to 100), Barnyardgrass",barnyardgrass; [4],70
same,"Plant response rating, Barnyardgrass",barnyardgrass; 62 g/ha,95
same,"Plant response rating, Barnyardgrass",barnyardgrass; 250 g/ha,100
